Here are results for 4 compounds from patent US6949575B2, “Method of inhibiting amyloid protein aggregation and imaging amyloid deposits using aminoindane derivatives” (Pfizer Inc., priority 2000, dated 2005).

The structures appear in SMILES notation. “And” between values parts separate entries of the source, which are not always exact repeats. Equal values may be shown once.

Common to all, as to format: biochemical
The target of test [1] is T1, Soluble Aβ(1-40) (Homo sapiens, UniProt P05067).
T1 construct: Soluble Aβ(1-40)—2.2 mg/mL in deionized H2O
T1 sequence (P05067 672-711 limits assumed): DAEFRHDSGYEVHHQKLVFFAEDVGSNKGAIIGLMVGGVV
Kind of test: BASST (Beta-Amyloid Self-Seeding, Thioflavin T): inhibitors of self-seeded amyloid fibril growth. As to conditions: 30 μM soluble Aβ(1-40), 37° C., 3 to 5 hours, thioflavin T fluorescence. As to the method: • 1) Prepare reaction mixture above by mixing components and storing on ice. • 2) Pipet 14.5 μL of reaction mixture into each of 50 wells on a polypropylene U-bottom 96-well microtiter plate on ice (Costar 3794). • 3) Add 1.7 μL of diluted compound to be tested to each well in a column of eight, including solvent control. Serial 3-fold dilutions from 1 mM (100 μM final) in assay buffer-urea=7 dilutions+zero. Each 96-well plate can therefore accommodate 11 samples+1 Congo Red control (0.039-5 μM final in 2-fold steps). • 4) Seal the plate with aluminum film (Beckman 538619) and incubate for 10 minutes on ice. • 5) Raise the temperature to 37° C. and incubate for 3 to 5 hours (depending on the lot of the peptide). • 6) Remove the aluminum film and add 200 μL/well of ice cold assay buffer with urea, collecting the radiolabeled fibrils by vacuum filtration through 0.2-μm pore size GVWP filters in 96-well plates (Millipore MAGV […], Bedford, Mass.). Determine the radioactivity of the filters using standard methods well-known to those skilled in the art. BASST (Beta-Amyloid Self-Seeding, Thioflavin T) An assay for inhibitors of self-seeded amyloid fibril growth Methods: Materials: Stock Solutions: Assay Buffer-50 mM sodium phosphate, pH 7.5, 100 mM NaCl, 0.02% NaN3, 1 M urea (filter and store at 4° C.) Soluble Aβ(1-40)-2.2 mg/mL in deionized H2O (store in aliquots at -20° C., keep on ice when thawed) will self-seed after 1 week storage. Typically, the solution should be stored until no lag phase is seen in the assay. Final assay conditions: 30 μM soluble Aβ(1-40) in deionized water in assay buffer. Compound to be tested is dissolved in DMSO, typically 5 to 50 mM stock, such that the final concentration of DMSO is <1% v/v in the assay. Assay: Reaction mixture for 50 assays (on ice) comprised of 1 μL of soluble Aβ(1-40)+13.5 μL assay buffer per assay. The following are the amounts of the components of the reaction mixture that result in each of the 50 assay wells. 50 μL soluble Aβ(1-40) 675 μL assay buffer Assay Method • 1) Prepare the reaction mix above by mixing the components and storing on ice. • 2) Pipet 14.5 μL of reaction mixture into each of 50 wells of a polystyrene U-bottom 96-well microtiter plate (Coming 25881-96) on ice. • 3) Add 1.7 μL of diluted compound to be tested to each well in a column of eight, including solvent control. Serial 3-fold dilutions from 1 mM (100 μM final) in assay buffer-urea=7 dilutions+zero. Each 96-well plate can therefore accommodate 11 samples+1 Congo Red control (0.039-5 μM final in 2-fold steps). • 4) Seal the plate with aluminum film and incubate for 10 minutes on ice. • 5) Raise the temperature to 37° C. and incubate for 3 to 5 hours (depends on the lot of the peptide). • 6) Remove the aluminum film and add 250 μL/well of 5 μM thioflavin T (ThT) [T-3516, Sigma-Aldrich] in 50 mM glycine-NaOH, pH 8.5. Read fluorescence on a plate reader (ex=440 nm/20 nm; em=485 nm/20 nm) within 5 minutes. BAPA (Beta-Amyloid Peptide Aggregation)

The target in test [2] is T2, Aβ (1-42) (Homo sapiens, UniProt P05067).
T2 construct: Required Aβ (1-42) (California Peptide); purchased California Peptide
T2 sequence (P05067 672-713 limits assumed): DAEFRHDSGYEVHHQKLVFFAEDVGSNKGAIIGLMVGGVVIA
Nature of the test: Batym Assay: Aβ (1-42) aggregation, Thioflavin T fluorescence. The following applies: Aβ1-42 final 100 μM, 37° C., 1 day, read-out: BAYTM IC50. As to the method: Required Aβ (1-42) (California Peptide) was dried from its HFIP stock solution. The Aβ (1-42) was dissolved in DMSO and then mixed with phosphate buffered saline (PBS) (pH 7.4). The mixed Aβ (1-42) solution was filtered with a Omnipore membrane 0.2-μm syringe filter (Millipore, Bedford, Mass.). The compound to be tested in DMSO (50× concentrate) was put into each well (0.5 μL/well) of a 96-well plate. The Aβ (1-42) solution was added into each well (24.5 μL/well). The plate was centrifuged at 1,000 g for 5 minutes and incubated at 37° C. for 1 day (Aβ1-42; final concentration 100 μM).
After incubation, Thioflavin T (ThT) (30 μM) solution in glycine-NaOH buffer (pH 8.5, 50 mM) was added into each well (250 μL/well), fluorescence was measured (ex=440/20 nm; em=485/20 nm) using a fluorescence plate reader. The inhibitory activity was calculated as the reduction of fluorescence with the following formula: Inhibition (%)={(F(Aβ)−F(Aβ+compound)}/{F(Aβ)−[…]}×100
The IC50s were calculated by a curve fitting program using the following equation. The data were obtained from two different experiments in triplicate. Inhibition (x)=100−100/{1+(x/IC50)^n}. • x=concentration of tested compound (M). • IC50=(M). • n=Hill coefficient.

Test [3] addresses T3, Soluble Aβ(1-40) peptide (Homo sapiens, UniProt P05067).
T3 construct: Soluble Aβ(1-40) peptide; purchased Bachem, Torrance, Calif
Nature of the test: BASSR (Beta-Amyloid Self-Seeding Radioassay): inhibitors of self-seeded amyloid fibril growth. As to conditions: 30 μM soluble Aβ(1-40) + 125I-labeled Aβ(1-40), 37° C., 3 to 5 hours, filtration; replicate values. As to the method:
BASSR (Beta-Amyloid Self-Seeding Radioassay)
An assay for inhibitors of self-seeded amyloid fibril growth
Assay Buffer—[…] sodium phosphate, pH 7.5, 100 mM NaCl, 0.02% NaN3, 1 M urea (filter and store at 4° C.)
Soluble Aβ(1-40) peptide (Bachem, Torrance, Calif.)—2.2 mg/mL in deionized H2O (stored in aliquots at −20° C., keep on ice when thawed) will self-seed after 1 week storage. Typically, the solution should be stored until no lag phase is seen in the assay.
^125I-labeled Aβ(1-40)—150 to 350K cpm/μL in 100% acetonitrile—0.1% trifluoroacetic acid (TFA)—1% β-mercaptoethanol (aliquots stored at −20° C.). ^125I-labeled Aβ(1-40) can be made in accordance with the procedure set forth by H. Levine, III in Neurobiol. Aging, 16:755 (1995), which is hereby incorporated by reference, or this reagent may be purchased from Amersham, Arlington Heights, Ill. Final assay conditions: 30 μM soluble Aβ(1-40) in deionized water in assay buffer+20 to 50K cpm ^125I-labeled Aβ(1-40) per assay. Compound to be tested is dissolved in dimethylsulfoxide (DMSO), typically 5 to 50 mM stock, such that the final concentration of DMSO is <1% v/v in the assay. Assay: Reaction mixture for 50 assays (on ice) is comprised of 0.1 to 0.2 μL of ^125I-labeled A^125I-labeled Aβ(1-40)+1 μL of soluble Aβ(1-40)+13.5 μL assay buffer per assay. The following are the amounts of the components of the reaction mixture sufficient for 50 assay wells.
• 1) Prepare reaction mixture above by mixing components and storing on ice. • 2) Pipet 14.5 μL of reaction mixture into each of 50 wells on a polypropylene U-bottom 96-well microtiter plate on ice (Costar 3794). • 3) Add 1.7 μL of diluted compound to be tested to each well in a column of eight, including solvent control. Serial 3-fold dilutions from 1 mM (100 μM final) in assay buffer-urea=7 dilutions+zero. Each 96-well plate can therefore accommodate 11 samples+1 Congo Red control (0.039-5 μM final in 2-fold steps). • 4) Seal the plate with aluminum film (Beckman 538619) and incubate for 10 minutes on ice. • 5) Raise the temperature to 37° C. and incubate for 3 to 5 hours (depending on the lot of the peptide). • 6) Remove the aluminum film and add 200 μL/well of ice cold assay buffer with urea, collecting the radiolabeled fibrils by vacuum filtration through 0.2-μm pore size GVWP filters in 96-well plates (Millipore MAGV N22, Bedford, Mass.). Determine the radioactivity of the filters using standard methods well-known to those skilled in the art. BASST (Beta-Amyloid Self-Seeding, Thioflavin T)

Test [4] concerns the target T4, Aβ (1-40) peptide (Homo sapiens, UniProt P05067).
T4 construct: Aβ (1-40) peptide in 20% HFIP
Nature of the test: BAPA (Beta-Amyloid Peptide Aggregation, pH 6.0), filtration endpoint. As to conditions: Aβ(1-40) 33 μM, pH 6.0, 2 to 4 hours, room temperature. As to the method:
• 1) Prepare the reaction mix above by mixing the components and storing on ice. • 2) Pipet 14.5 μL of reaction mixture into each of 50 wells of a polystyrene U-bottom 96-well microtiter plate (Coming 25881-96) on ice. • 3) Add 1.7 μL of diluted compound to be tested to each well in a column of eight, including solvent control. Serial 3-fold dilutions from 1 mM (100 μM final) in assay buffer-urea=7 dilutions+zero. Each 96-well plate can therefore accommodate 11 samples+1 Congo Red control (0.039-5 μM final in 2-fold steps). • 4) Seal the plate with aluminum film and incubate for 10 minutes on ice. • 5) Raise the temperature to 37° C. and incubate for 3 to 5 hours (depends on the lot of the peptide). • 6) Remove the aluminum film and add 250 μL/well of 5 μM thioflavin T (ThT) [T-3516, Sigma-Aldrich] in 50 mM glycine-NaOH, pH 8.5. Read fluorescence on a plate reader (ex=440 nm/20 nm; em=485 nm/20 nm) within 5 minutes. BAPA (Beta-Amyloid Peptide Aggregation) This assay is used to provide a measure of inhibition by a compound against the aggregation behavior of the β-amyloid peptide. The purpose of this assay is to provide a higher volume method of assaying the amount of β-amyloid aggregation using an endpoint assay based on filtration. In this assay, hexafluoroisopropanol (HFIP) is used to break down the initial amyloid peptide to a monomer state and use a concentration of 33 μM which is high enough so that aggregation will occur at pH 6.0 in several hours. Methods: Beta-Amyloid Peptide Aggregation, pH 6.0 (BAPA) In a 96-well plate (Costar 3794), we add 25 μL 50 mM phosphate buffer, pH 6.0, 10 μL 0.5 mg/mL Aβ (1-40) peptide in 20% HFIP+0.1 μL/assay radioiodinated ^125I Aβ (1-40) [^125I Aβ(1-40)], and 1 μL of the compound to be tested starting at 50 mM with a concentration of DMSO<1%. Then, we incubate for 2 to 4 hours at room temperature. We stop the reaction with 200 μL of 50 mM phosphate buffer, pH 6.0, and filter it through a 0.2 μm 96-well filter plate (Millipore MAGU […]). We wash the filter plate with 100 μL of the same phosphate buffer. Aggregation was detected on a Microbeta counter after impregnating the filters with Meltilex (1450-441) and is corrected for background.

T4 sequence (P05067 672-711 limits assumed): as the sequence (P05067 672-711 limits assumed) above
T3 sequence (P05067 672-711 limits assumed): as above

With `O=C(O)c1ccccc1Nc1ccc2c(c1)CC(NCc1ccc(Cl)c(Cl)c1)C2` (centres unmarked) [Example 3, 2-[2-(3,4-Dichlorobenzylamino)-indane-5-ylamino]-benzoic acid], the figures for the IC50 in test [1], in test [2] and in test [3] were 40 µM, over 100 µM and over 100 µM, respectively.
`O=C(O)c1cc([N+](=O)[O-])ccc1Nc1ccc2c(c1)CC(NCc1ccc(Cl)c(Cl)c1)C2` (centres unmarked) [Example 4, 2-[2-(3,4-Dichlorobenzylamino)-indan-5-ylamine]-5-nitro-benzoic Acid]: the IC50 in test [1] was determined as 1.1 µM; in test [2], 16 µM; in test [4], 28 µM.
In the case of `O=C(O)c1cc([N+](=O)[O-])ccc1NC1Cc2ccc(Nc3ccc(Cl)c(Cl)c3)cc2C1` (centres unmarked) [Example 9, 2-[5-(3,4-Dichlorophenylamino)-indan-2-ylamino]-5-nitro-benzoic acid], the figures for the IC50 in test [1] and in test [4] were 0.25 µM and 5 µM, respectively.
Take `O=C(O)c1cc([N+](=O)[O-])ccc1Nc1ccc2c(c1)CC(N(Cc1ccc(F)cc1)Cc1ccc(F)cc1)C2` (centres unmarked) [Example 11, 2-{2-[bis-(4-Fluorobenzyl)amino]indan-5-ylamino}-5-nitro-benzoic acid]: the concentration for half-maximal inhibition (IC50) in test [1] is 1 µM; in test [2] it was 7 µM and 12 µM; in test [4], 7 µM.

One may read the IC50 as the concentration that gives 50% inhibition.
